Experimental data reported in US20230330093A1, “APPLICATION OF NITROGEN-CONTAINING SATURATED HETEROCYCLIC COMPOUND” (SHANGHAI PHARMACEUTICALS HOLDING CO., LTD., priority 2020, published 2023).
Values joined by “and” are separate entries in the source; they are usually repeats but may differ in a detail not shown here. Equal entries are not always repeated.

How the values were obtained:
[1] = tested on: rhesus monkeys with spontaneous chronic kidney disease; assay: Effect on serum K+, 8-week administration; conditions: Valsartan group (n = 3)
Experimental: In the trial, animals were brought in three stages. In the first stage, there were two groups: 3 animals (No. 257, No. 4721, No. 287) in a group with 5 mg/kg of the malate of compound of formula I, and 2 animals (No. 1029, No. 4713) in the placebo group. […] In the third stage, there were two groups: 5 animals (No. 4829, No. 6501, No. 287, No. 4721, No. 2091) in a group with 2 mg/kg of the malate of compound of formula I, and 5 animals (No. 1567, No. 4861, No. 5453, No. 6653, No. 5073) in a group with 1 mg/kg of the malate of compound of formula I.
Serum potassium, twice before administration, once every 2 weeks during the administration period;
Blood biochemical and urine index detection equipment: Roche cobas6000 analyzer series C501 module detection. ELISA kit was used for NT-proBNP test.

[2] = tested on: cynomolgus monkeys; assay: 4-week safety study: hematology and coagulation; assay type: in vivo
Experimental: […] (1) Hematological and coagulation index examination were performed using a Bayer ADVIA2120 (Germany) and a Sysmex CA-1500 (Japan). (2) The serum biochemical examination was assessed using a HITACHI 7080 automated analyzer (Japan) and an Easylyte PLUS electrolyte analyzer (MEDICA, America). (3) The 24-h pooled urine of each animal was collected by a tray under each cage. Urinalysis was carried out using Uritest-300 (China). (4) The 24-h pooled faeces of each monkey were collected by a tray under each cage. Fecal occult blood was detected. (5) ACCESS 2 Chemiluminescence immunoassay was used for myocardial troponin (TropI, non-GLP) test.

[3] = all treated females and high-dose males

## CCCCC(=O)N(Cc1ccc(-c2ccccc2-c2nnn[nH]2)cc1)[C@H](C(=O)O)C(C)C [Valsartan, reference compound]
[1]; 2 weeks, Mean ± SD
  K^+: 5.09 ± 0.54 mmol/L
[1]; 2 weeks, individual animals
  K^+: 5.38 mmol/L and 4.47 mmol/L and 5.43 mmol/L
[1]; 4 weeks, Mean ± SD
  K^+: 5.04 ± 0.58 mmol/L
[1]; 4 weeks, individual animals
  K^+: 5.68 mmol/L and 4.55 mmol/L and 4.88 mmol/L
[1]; 6 weeks, Mean ± SD
  K^+: 5.06 ± 0.24 mmol/L
[1]; 6 weeks, individual animals
  K^+: 5.28 mmol/L and 4.81 mmol/L and 5.09 mmol/L
[1]; 8 weeks, Mean ± SD
  K^+: 5.13 ± 0.74 mmol/L
[1]; 8 weeks, individual animals
  K^+: 5.94 mmol/L and 4.50 mmol/L and 4.95 mmol/L
[1]; Baseline 1, Mean ± SD
  K^+: 4.37 ± 0.54 mmol/L
[1]; Baseline 1, individual animals
  K^+: 4.94 mmol/L and 3.86 mmol/L and 4.31 mmol/L
[1]; Baseline 2, Mean ± SD
  K^+: 4.66 ± 0.40 mmol/L
[1]; Baseline 2, individual animals
  K^+: 4.63 mmol/L and 4.27 mmol/L and 5.07 mmol/L

## COC(=O)NCCCn1nc([C@@H](C)N(C(=O)[C@H]2CNCCO2)C2CC2)c2ccc(C)nc21 [compound of Formula I]
[2]; Female, 20 mg/kg, d0
  APTT: 16.7 ± 0.8 s
  Fbg: 2.0 ± 0.3 g/L
  LYMPH: 51.3 ± 18.0%
  NEUT: 42.5 ± 18.8%
  WBC: 15.3 ± 3.6 ×10^9 · L^−1
[2]; Female, 20 mg/kg, d14
  APTT: 15.9 ± 1.0 s
  Fbg: 2.9 ± 0.9 g/L
  LYMPH: 40.8 ± 11.3%
  NEUT: 52.5 ± 10.4%
  WBC: 16.0 ± 3.9 ×10^9 · L^−1
[2]; Female, 20 mg/kg, d26
  APTT: 18.3 ± 1.4 s
  Fbg: 2.8 ± 0.9 g/L
  LYMPH: 33.1 ± 12.8 %
  NEUT: 61.4 ± 13.2 %
  WBC: 19.1 ± 4.0 ×10^9 · L^−1
[2]; Female, 20 mg/kg, d 56
  APTT: 16.4 ± 1.1 s
  Fbg: 1.7 ± 0.5 g/L
  LYMPH: 53.1 ± 7.4%
  NEUT: 38.1 ± 7.1%
  WBC: 12.4 ± 1.6 ×10^9 · L^−1
[2]; Female, 100 mg/kg, d0
  APTT: 15.0 ± 1.6 s
  Fbg: 1.9 ± 0.4 g/L
  LYMPH: 44.0 ± 16.5%
  NEUT: 50.5 ± 17.3%
  WBC: 10.9 ± 2.9 ×10^9 · L^−1
[2]; Female, 100 mg/kg, d14
  APTT: 14.5 ± 0.9 s
  Fbg: 2.5 ± 0.4 g/L
  LYMPH: 33.2 ± 4.4 %
  NEUT: 59.5 ± 5.3 %
  WBC: 14.0 ± 4.0 ×10^9 · L^−1
[2]; Female, 100 mg/kg, d26
  APTT: 19.7 ± 2.2 s
  Fbg: 3.5 ± 0.8 g/L
  LYMPH: 30.0 ± 6.8 %
  NEUT: 63.2 ± 6.4 %
  WBC: 15.9 ± 6.2 ×10^9 · L^−1
[2]; Female, 100 mg/kg, d 56
  APTT: 15.8 ± 1.5 s
  Fbg: 2.1 ± 0.3 g/L
  LYMPH: 48.7 ± 0.6%
  NEUT: 45.2 ± 2.3%
  WBC: 9.9 ± 1.0 ×10^9 · L^−1
[2]; Female, 450 mg/kg, d0
  APTT: 16.9 ± 1.4 s
  Fbg: 1.8 ± 0.3 g/L
  LYMPH: 51.8 ± 12.2%
  NEUT: 43.3 ± 12.3%
  WBC: 14.4 ± 1.7 ×10^9 · L^−1
[2]; Female, 450 mg/kg, d14
  APTT: 18.6 ± 0.8 s
  Fbg: 3.9 ± 0.8 g/L
  LYMPH: 30.1 ± 14.3 %
  NEUT: 63.5 ± 15.2 %
  WBC: 16.9 ± 7.8 ×10^9 · L^−1
[2]; Female, 450 mg/kg, d26
  APTT: 20.1 ± 3.1 s
  Fbg: 4.2 ± 0.7 g/L
  LYMPH: 26.9 ± 8.9 %
  NEUT: 67.5 ± 9.2 %
  WBC: 18.1 ± 3.7 ×10^9 · L^−1
[2]; Female, 450 mg/kg, d 56
  APTT: 18.0 ± 3.5 s
  Fbg: 1.4 ± 0.0 g/L
  LYMPH: 53.3 ± 0.3%
  NEUT: 42.3 ± 0.6%
  WBC: 14.0 ± 4.9 ×10^9 · L^−1
[2]; Male, 20 mg/kg, d0
  APTT: 16.4 ± 1.1 s
  Fbg: 2.1 ± 0.6 g/L
  LYMPH: 55.3 ± 14.6%
  NEUT: 39.9 ± 14.6%
  WBC: 13.4 ± 2.5 ×10^9 · L^−1
[2]; Male, 20 mg/kg, d14
  APTT: 17.8 ± 2.7 s
  Fbg: 3.2 ± 0.8 g/L
  LYMPH: 51.1 ± 19.6%
  NEUT: 43.1 ± 20.4%
  WBC: 17.7 ± 9.3 ×10^9 · L^−1
[2]; Male, 20 mg/kg, d26
  APTT: 19.5 ± 2.4 s
  Fbg: 2.2 ± 0.4 g/L
  LYMPH: 59.5 ± 11.9%
  NEUT: 35.1 ± 12.4%
  WBC: 13.8 ± 6.5 ×10^9 · L^−1
[2]; Male, 20 mg/kg, d 56
  APTT: 21.3 ± 4.0 s
  Fbg: 3.1 ± 1.4 g/L
  LYMPH: 53.3 ± 14.3%
  NEUT: 38.5 ± 12.6%
  WBC: 20.1 ± 4.2 ×10^9 · L^−1
[2]; Male, 100 mg/kg, d0
  APTT: 16.6 ± 1.8 s
  Fbg: 2.2 ± 0.3 g/L
  LYMPH: 61.5 ± 16.2%
  NEUT: 32.6 ± 18.2%
  WBC: 12.6 ± 2.3 ×10^9 · L^−1
[2]; Male, 100 mg/kg, d14
  APTT: 15.5 ± 0.5 s
  Fbg: 2.8 ± 0.7 g/L
  LYMPH: 48.0 ± 12.2%
  NEUT: 45.2 ± 12.2%
  WBC: 15.6 ± 6.6 ×10^9 · L^−1
[2]; Male, 100 mg/kg, d26
  APTT: 22.5 ± 2.5 s
  Fbg: 4.1 ± 1.2 g/L
  LYMPH: 32.1 ± 9.4%
  NEUT: 60.8 ± 10.5%
  WBC: 20.3 ± 2.9 ×10^9 · L^−1
[2]; Male, 100 mg/kg, d 56
  APTT: 17.7 ± 1.0 s
  Fbg: 1.7 ± 0.3 g/L
  LYMPH: 52.7 ± 9.0%
  NEUT: 42.5 ± 11.2%
  WBC: 14.1 ± 0.2 ×10^9 · L^−1
[2]; Male, 450 mg/kg, d0
  APTT: 17.0 ± 2.1 s
  Fbg: 2.2 ± 0.7 g/L
  LYMPH: 48.6 ± 16.8%
  NEUT: 46.9 ± 17.3%
  WBC: 12.0 ± 3.8 ×10^9 · L^−1
[2]; Male, 450 mg/kg, d14
  APTT: 16.1 ± 0.8 s
  Fbg: 3.1 ± 1.0 g/L
  LYMPH: 35.6 ± 15.5%
  NEUT: 59.2 ± 16.0%
  WBC: 16.7 ± 6.4 ×10^9 · L^−1
[2]; Male, 450 mg/kg, d26
  APTT: 20.0 ± 3.3 s
  Fbg: 4.1 ± 0.6 g/L
  LYMPH: 26.5 ± 12.0 %
  NEUT: 68.6 ± 12.3 %
  WBC: 18.6 ± 5.9 ×10^9 · L^−1
[2]; Male, 450 mg/kg, d 56
  APTT: 19.9 ± 0.3 s
  Fbg: 1.8 ± 0.0 g/L
  LYMPH: 59.8 ± 22.8%
  NEUT: 36.7 ± 23.2%
  WBC: 14.6 ± 0.8 ×10^9 · L^−1
[2]; [3]
  LYMPH %: decreased
  NEUT %: Increased
[2]; high-dose females
  APTT: increases
[2]; mid- and high-dose animals
  Fbg: increases
